# From US20200332251A1, “PERFUSION MEDIUM” (Boehringer Ingelheim International GmbH, priority 2017, published 2020)
# Key:
# Assay type in all cases: cell-based, Chinese Hamster
# [1] = tested on: CHO perfusion cell culture; assay: Deep-well plate perfusion cell culture model, acetylsalicylic acid (ASA) in perfusion media with 500 μM arachidonic acid
# Procedure: (§1) The below examples, unless specified otherwise, were carried out using the following generalized protocol and apparatus for perfusion cell culture. Two different formats of perfusion culture process were employed for the experiments described in the examples. One is executed in a bioreactor model and the other is in a deep-well plate model.
# (§2) The deep-well plate model is carried out using 24 deep-well plates with an 8 day run duration. A starting cell density of 20e^6 cells/ml is targeted for deep well plate model work. The working volume per well is 3 ml and cells are grown at 33° C. with 5% CO2, 80% humidity, and 200 rpm in an incubator with a 5.0 cm orbit diameter. Medium exchanges are performed daily by centrifuging the plate at 1800 rpm for 5 mins, removing supernatant, and re-suspending the cells in fresh media at 70% volume per day (VVD) exchange rate. Further details of the setup is described by Lin et al. (Biotechnol. Prog., 2017, Vol. 33, No. 4).
# In this example, the deep-well plate model is used. ASA is an inhibitor of COX-1 and COX-2, which are the metabolic enzymes which convert arachidonic acid to synthesize prostaglandin E2 (See FIG. 2). This experiment therefore analyses the effect of acetylsalicylic acid (ASA) when added to perfusion medium.
# The data provide evidence that prostaglandin E2 is effective in triggering cell growth suppression and in increasing cell specific productivity.
# [2] = tested on: CHO perfusion cell culture; assay: cells; settings: for increase of the cell specific productivity: relative to cell culture without the additive; for cell growth (VCD) relative to normal perfusion media / specific productivity relative to normal perfusion media: each concentration (arachidonic acid 500 μM; PGE2 0.001, 10, 20, 60 μM), before day 6
# Procedure: as §1, §2
# In this example, the deep-well plate model is used.
# Linoleic acid at various concentrations 500 μM, 900 μM, 1350 μM and 1800 μM was added to the cell culture media and the effects on (A) viable cell density (e^5 cells/nil), (B) percent (%) cell viability and (C) specific productivity (qp) were determined.
# In this example, the deep-well plate model is used. This example analyzes the effect of arachidonic acid when added to perfusion medium.
# The effect of arachidonic acid on (A) viable cell density (e^5 cells/nil), (B) percent (%) cell viability and (C) specific productivity (qp) of the cell culture was determined.
# In this example, the deep-well plate model is used. This experiment analyzes the effect of prostaglandin E2 when added to perfusion medium.
# At each concentration, the VCD and specific productivity (i.e., specific titer), the growth was suppressed cell growth and the specific productivity was increased before day 6 relative to the cell culture in normal perfusion media.
# [3] = tested on: CHO perfusion cell culture; assay: Deep-well plate perfusion cell culture model, arachidonic acid added to k-pop (high potassium) perfusion medium; settings: 150 μM to 500 μM in medium with about 34 mM sodium and 94 mM potassium; beyond the effect of high potassium alone
# Procedure: as §1
# as §2, with “4). […]” for “4).”
# The effect of concentrations of arachidonic acid added at 150 μM, 300 μM and 500 μM to a cell culture media having a sodium concentration of approximately 34 mM and a preexisting high potassium concentration of approximately 94 mM, i.e., a low sodium-to-potassium ratio of about 0.4, was determined with respect to (A) viable cell density (e^5 cells/nil), (B) percent (%) cell viability and (C) specific productivity (qp) was determined.
# [4] = ASA in perfusion media with 500 μM arachidonic acid
# [5] = Cricetulus griseus, read-out: decrease of the VCD (viable cell density)
# [6] = added to perfusion medium, 500-1800 μM (Example 2, FIG. 3)
# [7] = 500 μM added in the normal perfusion media (Example 3, FIG. 4)
smiles,measurement,setting,value
"CC(=O)Oc1ccccc1C(=O)O [ASA, acetylsalicylic acid]",specific productivity compared with normal perfusion medium,[1]; [4],same effect
same,viable cell density compared with normal perfusion medium,[1]; [4],higher
CCCCC[C@H](O)/C=C/[C@H]1[C@H](O)CC(=O)[C@@H]1C/C=C\CCCC(=O)O [prostaglandin E2],increase of the cell specific productivity,[2]; 0.001 μM in growth medium,up to 13.5%
same,increase of the cell specific productivity,[2]; 10 μM in growth medium,up to 34.4%
same,increase of the cell specific productivity,[2]; 20 μM in growth medium,up to 31%
same,increase of the cell specific productivity,[2]; 60 μM in growth medium,up to 31%
same,cell growth (VCD) relative to normal perfusion media,[2],suppressed
same,specific productivity relative to normal perfusion media,[2],increased
CCCCC/C=C\C/C=C\CCCCCCCC(=O)O [linoleic acid],increase of the cell specific productivity,[2]; 500 μM in growth medium,up to 10%
same,increase of the cell specific productivity,[2]; 900 μM in growth medium,up to 14%
same,increase of the cell specific productivity,[2]; 1350 μM in growth medium,up to 14%
same,increase of the cell specific productivity,[2]; 1800 μM in growth medium,up to 30%
same,"viable cell density, viability and specific productivity relative to the normal perfusion media","[2]; 1800 μM, similar to arachidonic acid at 500 μM",most significant difference
same,cell specific productivity relative to normal perfusion media,"[2]; 500, 900 and 1350 μM, day 7, about the same at the three concentrations",significantly increased
same,cytotoxicity at 500 µM,[2]; [5],6 to 10%
same,cytotoxicity at 900 µM,[2]; [5],11 to 14%
same,cytotoxicity at 1350 µM,[2]; [5],11 to 25%
same,cytotoxicity at 1800 µM,[2]; [5],23 to 39.8%
same,cell growth,[2]; [6],suppresses cell growth
same,cell specific productivity (qp),[2]; [6],increases cell specific productivity
CCCCC/C=C\C/C=C\C/C=C\C/C=C\CCCC(=O)O [arachidonic acid],increase of cell specific productivity (qp),[2]; [7],≥ 46%
same,suppression of cell growth,[2]; [7],up to 31%
same,increase of the cell specific productivity,[2]; 500 μM in growth medium,up to 52%
same,cytotoxicity at 500 µM,[2]; [5],15 to 36%
same,cell growth (VCD) relative to normal perfusion media,[2],suppressed
same,specific productivity relative to normal perfusion media,[2],increased
same,cell growth,[3],decreases cell growth
same,cell specific productivity,[3],improves cell specific productivity
same,suppressing cell growth and increasing productivity,[1]; 500 μM arachidonic acid when COX-1 and COX-2 are inhibited by ASA,no effect
